Results: patent US20260176267A1, “PREPARATION OF IMIDAZOPYRIDINE AND IMIDAZOPYRIDAZINE DERIVATIVES AS NOVEL DIACYLGLYCERIDE O-ACYLTRANSFERASE 2 INHIBITORS” (Merck Sharp & Dohme LLC, priority 2022, published 2026)

target: T1, human DGAT2 (hDGAT2) (Homo sapiens, UniProt Q96PD7); test: DGAT2 Enzymatic Activity Assay; type: biochemical; conditions: membrane prep of Sf-9 cells expressing hDGAT2; 13C18-triolein product by LC/MS/MS; 25 μM diolein, 5 μM 13C oleoyl-CoA, rt
T1 construct: made in house; host or cells: Sf-9 insect cells (baculovirus), membrane fraction
T1 sequence (Q96PD7 1-388): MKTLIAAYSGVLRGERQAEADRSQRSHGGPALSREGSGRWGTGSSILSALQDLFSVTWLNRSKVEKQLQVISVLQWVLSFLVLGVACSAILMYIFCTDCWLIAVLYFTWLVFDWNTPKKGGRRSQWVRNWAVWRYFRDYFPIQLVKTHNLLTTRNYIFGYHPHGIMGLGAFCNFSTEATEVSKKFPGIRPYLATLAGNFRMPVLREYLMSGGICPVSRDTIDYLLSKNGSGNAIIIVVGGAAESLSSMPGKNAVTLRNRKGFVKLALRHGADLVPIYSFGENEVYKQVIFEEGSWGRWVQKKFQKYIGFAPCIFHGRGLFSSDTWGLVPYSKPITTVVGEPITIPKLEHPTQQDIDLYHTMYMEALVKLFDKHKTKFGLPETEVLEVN
In short: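 At room temperature, DGAT2 activity in baculovirus-infected Sf-9 membrane preps (human enzyme, untagged) is measured as formation of ^13C18-triolein. Product is extracted and measured by positive-mode LC/MS/MS, with the ratio to spiked ^13C21-triolein giving inhibition and IC50.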

SMILES	IC50 [nM]
Cc1c(C(=O)NC2(C)CCS(=O)(=O)CC2)nc2ccc(Oc3nccnc3OCC(F)(F)F)cn12 [Example 82, 3-methyl-N-(4-methyl-1,1-dioxo-thian-4-yl)-6-[3-(2,2,2-trifluoroethoxy)pyrazin-2-yl]oxy-imidazo[1,2-a]pyridine-2-carboxamide]	9.1
CO[C@]1(C(F)(F)F)C[C@H](NC(=O)c2nc3ccc(Oc4ncc(F)cc4OCC(F)F)cn3c2C)C1 [Example 83, 6-[[3-(2,2-difluoroethoxy)-5-fluoro-2-pyridyl]oxy]-N-[3-methoxy-3-(trifluoromethyl)cyclobutyl]-3-methyl-imidazo[1,2-a]pyridine-2-carboxamide]	12
Cc1c(C(=O)NC2(C)CS(=O)(=O)C2)nc2ccc(Oc3ncc(Cl)cc3OCC(F)(F)F)cn12 [Example 84, 6-[[5-chloro-3-(2,2,2-trifluoroethoxy)-2-pyridyl]oxy]-3-methyl-N-(3-methyl-1,1-dioxo-thietan-3-yl)imidazo[1,2-a]pyridine-2-carboxamide]	6.2
Cc1c(C(=O)NC2(C)CCC(F)(F)CC2)nc2ccc(Oc3ncccc3OCC(F)F)cn12 [Example 86, 6-[[3-(2,2-difluoroethoxy)-2-pyridyl]oxy]-N-(4,4-difluoro-1-methyl-cyclohexyl)-3-methyl-imidazo[1,2-a]pyridine-2-carboxamide]	6.8
Cc1c(C(=O)NC2(C)CCS(=O)(=O)CC2)nc2ccc(Oc3ncccc3OCC(F)(F)F)cn12 [Example 87, 3-methyl-N-(4-methyl-1,1-dioxo-thian-4-yl)-6-[[3-(2,2,2-trifluoroethoxy)-2-pyridyl]oxy]imidazo[1,2-a]pyridine-2-carboxamide]	17
Cc1c(C(=O)NC2(C)CS(=O)(=O)C2)nc2ccc(Oc3ncccc3OCC(F)F)cn12 [Example 90, 6-[[3-(2,2-difluoroethoxy)-2-pyridyl]oxy]-3-methyl-N-(3-methyl-1,1-dioxo-thietan-3-yl)imidazo[1,2-a]pyridine-2-carboxamide]	5
Cc1c(C(=O)NC2(C(C)C)CCS(=O)(=O)CC2)nc2ccc(Oc3ncc(F)cc3OCC(F)(F)F)cn12 [Example 91, 6-[[5-fluoro-3-(2,2,2-trifluoroethoxy)-2-pyridyl]oxy]-N-(4-isopropyl-1,1-dioxo-thian-4-yl)-3-methyl-imidazo[1,2-a]pyridine-2-carboxamide]	22
Cc1c(C(=O)NC2(C)CCS(=O)(=O)CC2)nc2ccc(Oc3ncc(C(F)(F)F)cc3OCC(F)(F)F)cn12 [Example 92, 3-methyl-N-(4-methyl-1,1-dioxo-thian-4-yl)-6-[[3-(2,2,2-trifluoroethoxy)-5-(trifluoromethyl)-2-pyridyl]oxy]imidazo[1,2-a]pyridine-2-carboxamide]	17

Continued, values first:

IC50 [nM]	SMILES
1.6	Cc1c(C(=O)NC2(C)CN(C(=O)C(F)(F)F)C2)nc2ccc(Oc3ncc(F)cc3OCC(F)F)cn12 [Example 85, 6-[[3-(2,2-difluoroethoxy)-5-fluoro-2-pyridyl]oxy]-3-methyl-N-[3-methyl-1-(2,2,2-trifluoroacetyl)azetidin-3-yl]imidazo[1,2-a]pyridine-2-carboxamide]
8.3	Cc1c(C(=O)NC2(C)CCS(=O)(=O)CC2)nc2ccc(Oc3ncc(F)cc3OCC(F)(F)F)cn12 [Example 88, 6-[[5-fluoro-3-(2,2,2-trifluoroethoxy)-2-pyridyl]oxy]-3-methyl-N-(4-methyl-1,1-dioxo-thian-4-yl)imidazo[1,2-a]pyridine-2-carboxamide]
20	Cc1c(C(=O)NC2(C)CN(C(=O)C(F)(F)F)C2)nc2ccc(Oc3ncc(F)cc3OCC(F)(F)F)cn12 [Example 89, 6-[[5-fluoro-3-(2,2,2-trifluoroethoxy)-2-pyridyl]oxy]-3-methyl-N-[3-methyl-1-(2,2,2-trifluoroacetyl)azetidin-3-yl]imidazo[1,2-a]pyridine-2-carboxamide]
